Consider 1 molecule from ChEMBL document CHEMBL1151372, “Isoiguesterin, a new antileukemic bisnortriterpene from Salacia madagascariensis” (1981).

What all share (format): functional
Test [1] has as its system P388. Briefly: In vivo antitumor activity against mouse P388 cells at 0.75 mg/kg relative to control.
Test [2] concerns P388. Put plainly: In vivo antitumor activity against mouse P388 cells at 1 mg/kg relative to control.
Another test deals with KB. Briefly: Cytotoxicity against human KB cells. The note with it: read-out: ED50 (the source's name).

In brackets after ≈: the same amount, converted by molar mass.

For the molecule `C=C1CC[C@]2(C)CC[C@]3(C)C4=CC=C5C(=CC(=O)C(O)=C5C)[C@]4(C)CC[C@@]3(C)[C@@H]2C1` [ISOIGUESTERIN], the T/C stood at 125% in the test on P388 [1] and 147% in the test on P388 [2]. Besides, the EC50 with KB stood at 0.24 µg/mL (≈ 0.593 µM).

Broadly, the T/C is the ratio of treated to control.
